Results reported in ChEMBL document CHEMBL1138139, “Synthesis of 1-(3',4',5'-trimethoxy) phenyl naphtho[2,1b]furan as a novel anticancer agent” (Bioorg Med Chem Lett, 2006).
Converted amounts (≈) assume the structure as drawn.

How the values were obtained:
Format in all cases: functional, cell-based
COLO 320DM = assay: Cytotoxicity against human COLO320DM cell line by MTT assay
WRL68 = assay: Cytotoxicity against human WRL68 cell line by MTT assay
PA-1 = assay: Cytotoxicity against human PA1 cell line by MTT assay
Caco-2 = assay: Cytotoxicity against human Caco-2 cell line by MTT assay
KB = assay: Cytotoxicity against human KB403 cell line by MTT assay
MCF7 = assay: Cytotoxicity against MCF7 cell line by MTT assay; conditions: Homo sapiens

Compound | IC50 (COLO 320DM) [µg/mL] | IC90 (COLO 320DM) [µg/mL] | IC50 (WRL68) [µg/mL] | IC90 (WRL68) [µg/mL] | IC50 (PA-1) [µg/mL] | IC90 (PA-1) [µg/mL] | IC50 (Caco-2) [µg/mL] | IC50 (KB) [µg/mL] | IC90 (KB) [µg/mL] | IC90 (Caco-2) [µg/mL] | IC90 (MCF7) [µg/mL]
COc1cc(-c2coc3ccc4ccccc4c23)cc(OC)c1OC | 0.65 (≈ 1.94 µM) | 4 (≈ 12 µM) | 0.7 (≈ 2.09 µM) | 5 (≈ 15 µM) | 3.5 (≈ 10.5 µM) | 4.5 (≈ 13.5 µM) | 0.5 (≈ 1.5 µM) | 8 (≈ 23.9 µM) | 10 (≈ 29.9 µM) | – | –
c1ccc(-c2coc3ccc4ccccc4c23)cc1 | – | – | – | – | – | – | – | 9 (≈ 36.8 µM) | – | – | –
COc1ccc(-c2coc3ccc4ccccc4c23)cc1 | 5 (≈ 18.2 µM) | – | 6 (≈ 21.9 µM) | – | 4 (≈ 14.6 µM) | 8 (≈ 29.2 µM) | 0.95 (≈ 3.46 µM) | – | – | 7.5 (≈ 27.3 µM) | –
CC(=O)O[C@H]1C(=O)[C@@]2(C)[C@H]([C@H](OC(=O)c3ccccc3)[C@]3(O)C[C@H](OC(=O)[C@H](O)[C@@H](NC(=O)c4ccccc4)c4ccccc4)C(C)=C1C3(C)C)[C@]1(OC(C)=O)CO[C@@H]1C[C@@H]2O [PACLITAXEL] | 0.0045 (≈ 0.00527 µM) | 0.01 (≈ 0.0117 µM) | 0.0035 (≈ 0.0041 µM) | 2.5 (≈ 2.93 µM) | 0.006 (≈ 0.00703 µM) | 0.9 (≈ 1.05 µM) | 0.007 (≈ 0.0082 µM) | 0.001 (≈ 0.00117 µM) | 0.047 (≈ 0.055 µM) | 0.065 (≈ 0.0761 µM) | 0.85 (≈ 0.995 µM)
